US20030163846A1, “Process for the genetic modification of a plant” (priority 2000, published 2003)

How the values were obtained:
SUT4 = assay: stimulation/inhibition of uptake of 14C-saccharose by means of SUT4 (FIG. 5C); type: cell-based
Experimental: (§1) For the saccharose uptake tests, yeast was cultivated in a liquid minimal medium containing glucose, up to an OD623 of approximately 0.8. Cells were collected by means of centrifugation, washed in 25 mM sodium phosphate buffer (pH 5.5), and suspended in the same buffer at an OD623 of 20. The uptake tests were initiated by adding glucose ending at a final concentration of 10 mM to the yeast cells one minute before adding ^14C-saccharose. Following incubation at 30° C. while stirring, cells were collected by means of vacuum filtration on fiberglass filters (1-5 minutes), washed twice with 4 mL 10 mM saccharose (at the freezing point), and the radioactivity was determined using a liquid scintillation counter. […] A significant difference compared with the vector controls is apparent.
The stimulation of the uptake of ^14C-saccharose by means of SUT4 through glucose and the inhibition through an electron transport inhibitor (antimycin A and the protonophore CCCP is shown in FIG. 5C).

AtSUT2 = target: T1, AtSUT2 (Arabidopsis thaliana, UniProt O80605); assay: substrate specificity and inhibition of saccharose uptake by AtSUT2 in yeast; type: cell-based; conditions: for competition with 14C-saccharose uptake: 1 mM saccharose, competitively with other sugars and sugar alcohols
T1 construct: expressed in transfected cells; host or cells: Saccharomyces cerevisiae SEY6210, expression vector pDR196
T1 sequence (O80605 1-594): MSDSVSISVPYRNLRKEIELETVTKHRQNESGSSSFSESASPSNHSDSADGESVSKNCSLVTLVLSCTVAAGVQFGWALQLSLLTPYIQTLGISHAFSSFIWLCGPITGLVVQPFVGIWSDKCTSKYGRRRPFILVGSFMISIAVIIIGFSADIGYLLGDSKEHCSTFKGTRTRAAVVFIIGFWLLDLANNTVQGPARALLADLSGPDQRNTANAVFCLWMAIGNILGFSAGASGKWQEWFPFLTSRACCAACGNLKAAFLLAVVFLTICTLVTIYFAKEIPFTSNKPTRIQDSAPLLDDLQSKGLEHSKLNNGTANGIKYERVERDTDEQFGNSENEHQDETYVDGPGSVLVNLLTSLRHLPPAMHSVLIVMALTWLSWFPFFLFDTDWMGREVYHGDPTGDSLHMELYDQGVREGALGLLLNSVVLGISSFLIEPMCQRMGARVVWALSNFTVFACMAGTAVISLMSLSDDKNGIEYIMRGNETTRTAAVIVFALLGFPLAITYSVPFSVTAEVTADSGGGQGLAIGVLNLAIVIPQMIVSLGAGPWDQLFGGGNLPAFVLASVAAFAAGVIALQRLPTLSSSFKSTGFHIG
Experimental: The saccharose uptake by AtSUT2 was pH-dependent, and the highest uptake rates were measured at a pH of 4.0. […] To determine the substrate specificity of AtSUT2, the saccharose uptake (1 mM saccharose) was measured competitively with other sugars and sugar alcohols.

leaf blades = conditions: high affinity/low capacity system, cited from earlier work
[1] = 14-C saccharose uptake tests in yeast strain SEY6210 expressing AtSUT2, StSUT1 or chimeric proteins; type: cell-based; conditions: for Km: AtSUT2 at a pH of 4
Experimental: It was shown that the saccharose uptake by yeast cells that express AtSUT2 was linear in the first five minutes of the test. During this period, 0.1 nmol saccharose accumulated in 10^8 cells. […] By contrast, the transport rate with StSUT1-expressing cells was 400 times greater than with AtSUT2-expressing cells. […] Using the Michaelis-Menten equation and a nonlinear regression analysis, a KM value of 11.7±1.2 mM
Table: KM values for saccharose of the saccharose transporters StSUT1 and AtSUT2 as well as of chimeric proteins in which the N-terminal regions or central cytoplasmic loops are exchanged between the two transporters. The values were determined as mean values±standard errors from at least three different measurements. Different letters indicate significant differences (p<0.05).

[2] = 14C-saccharose uptake tests in yeast expressing SUT4 (SUSY7/ura3); type: cell-based
Experimental: The yeast strain SUSY7/ura3 is a modified version of SUSY7 (Riesmeier et al., EMBO J. (1992) 11, 4705-4713), which contains a deletion of a portion of the URA3 gene and, as a result, permits selection for uracil auxotrophy. Media that contained the 1.7 g/L yeast nitrogen base without amino acids (Difco), 2% saccharose, 20 mg/L tryptophane, and 1.5% agarose, pH 5.0, were used to analyze yeast growth on a saccharose medium.
as §1
Data for the kinetic analysis were obtained for SUT4 from a nonlinear regression of the uptake measurements using the Michaelis-Menten equation. Km was represented as an average of eight determinations using three independent transformants±standard deviation. The KM value for saccharose that was determined was 11.6±0.6 mM (at a pH of 5.5) and 5.9±0.8 mM (at a pH of 4.0) for SUT4 from arabidopsis. For SUT4 from Solanum tuberosum the KM value was 6.0±1.2 mM (pH 4.0) (see FIG. 5B).

Molecule: antimycin A
- effect on uptake of 14C-saccharose by means of SUT4 (SUT4): inhibition
- inhibition of saccharose transport by means of AtSUT2 (AtSUT2): inhibited

Molecule: OC[C@H]1O[C@H](OC[C@H]2OC(O)(CO)[C@@H](O)[C@@H]2O)[C@H](O)[C@@H](O)[C@@H]1O (some centres unmarked) [isomaltulose]
- competition with 14C-saccharose uptake (AtSUT2): only the saccharose and to a lesser extent maltose were able to compete significantly

Molecule: OC[C@H](O)[C@@H](O)[C@H](O)[C@H](O)CO[C@H]1O[C@H](CO)[C@@H](O)[C@H](O)[C@H]1O [glucosorbitol]
- competition with 14C-saccharose uptake (AtSUT2): only the saccharose and to a lesser extent maltose were able to compete significantly

Molecule: OC[C@@H](O)[C@@H](O)[C@H](O)[C@H](O)CO[C@H]1O[C@H](CO)[C@@H](O)[C@H](O)[C@H]1O [glucomannitol]
- competition with 14C-saccharose uptake (AtSUT2): only the saccharose and to a lesser extent maltose were able to compete significantly

Molecule: OC[C@@H](O)[C@@H](O)[C@H](O)[C@H](O)CO [mannitol]
- competition with 14C-saccharose uptake (AtSUT2): only the saccharose and to a lesser extent maltose were able to compete significantly

Molecule: O=C[C@H](O)[C@@H](O)[C@@H](O)[C@H](O)CO [galactose]
- competition with 14C-saccharose uptake (AtSUT2): only the saccharose and to a lesser extent maltose were able to compete significantly

Molecule: OC[C@H]1O[C@H](OC[C@H]2O[C@H](O[C@]3(CO)O[C@H](CO)[C@@H](O)[C@@H]3O)[C@H](O)[C@@H](O)[C@@H]2O)[C@H](O)[C@@H](O)[C@H]1O [raffinose]
- competition with 14C-saccharose uptake (AtSUT2): only the saccharose and to a lesser extent maltose were able to compete significantly

Molecule: N#CC(C#N)=NNc1cccc(Cl)c1 [CCCP]
- effect on uptake of 14C-saccharose by means of SUT4 (SUT4): inhibition
- inhibition of saccharose transport by means of AtSUT2 (AtSUT2): inhibited

Molecule: OC[C@H]1O[C@@H](O[C@H]2[C@H](O)[C@@H](O)C(O)O[C@@H]2CO)[C@H](O)[C@@H](O)[C@H]1O (some centres unmarked) [lactose]
- competition with 14C-saccharose uptake (AtSUT2): only the saccharose and to a lesser extent maltose were able to compete significantly

Molecule: OC[C@@H](O)[C@@H](O)[C@H](O)[C@@H](O)CO [sorbitol]
- competition with 14C-saccharose uptake (AtSUT2): only the saccharose and to a lesser extent maltose were able to compete significantly

Molecule: OC[C@H]1O[C@@](CO)(O[C@H]2O[C@H](CO)[C@@H](O)[C@H](O)[C@H]2O)[C@@H](O)[C@@H]1O [saccharose]
- Km (leaf blades; read-out: Km of saccharose intake): 2.7 mM
- Vmax of saccharose intake (leaf blades): 0.7 nmol cm^−2 min^−1
- competition with 14C-saccharose uptake (AtSUT2): able to compete significantly

B1: StSUT1: high-affinity saccharose transporter SUT1 from Solanum tuberosum, SEQ ID no. 23 (protein, listed as Solanum tuberosum)
chain: MENGTKREGLGKLTVSSSLQVEQPLAPSKLWKIIVVASIAAGVQFGWALQLSLLTPYVQLLGIPHKFASFIWLCGPISGMIVQPVVGYYSDNCSSRFGRRRPFIAAGAALVMIAVFLIGFAADLGHASGDTLGKGFKPRAIAVFVVGFWILDVANNMLQGPCRALLADLSGGKSGRMRTANAFFSFFMAVGNILGYAAGSYSHLFKVFPFSKTKACDMYCANLKSCFFIAIFLLLSLTTIALTLVRENELPEKDEQEIDEKLAGAGKSKVPFFGEIFGALKELPRPMWILLLVTCLNWIAWFPFFLYDTDWMAKEVFGGQVGDARLYDLGVRAGAMGLLLQSVVLGFMSLGVEFLGKKIGGAKRLWGILNFVLAICLAMTILVTKMAEKSRQHDPAGTLMGPTPGVKIGALLLFAALGIPLAATFSIPFALASIFSSNRGSGQGLSLGVLNLAIVVPQMLVSLVGGPWDDLFGGGNLPGFVVGAVAAAASAVLALTMLPSPPADAKPAVAMGGFH
- KM value for saccharose, fold lower than AtSUT2 [1]: 10 times
- transport rate relative to AtSUT2-expressing cells [1]: 400 times
- Vmax ([1]; table): 210.2 ± 5.7 nmol saccharose min^−1 10^8 ce
- Vmax ([1]; yeast SEY6210): 210.2 nmol·min^−1 10^8 cells^−1
- Km ([1]; yeast SEY6210): 1.7 mM

B2: StSUT4: saccharose transporter SUT4 from Solanum tuberosum, amino acid sequence SEQ ID no. 28 (protein, listed as Solanum tuberosum)
chain: MPEIERHRTRHNRPAIREPVKPRVPLRLLFRVASVAGGIQFGWALQLSLLTPYVQELGIPHAWASIIWLCGPLSGLLVQPLVGHMSDKCTSRFGRRRPFIVAGAVSIMIAVLIIGFSADIGWLLGDRGEIKVRAIAAFVVGFWLLDVANNMTQGPCRALLADLTQKDHRRTRVANAYFSLFMAIGNILGFATGSYSGWFKIFPFTLNTACTINCANLKAAFIIDIIFIATTTCISISAANEQPLDPSRGSSHTREEIGESSHGQEEAFLWELFGIFKYFPGVVWVILLVTALTWIGWFPFLLFDTDWFGREIYGGEPNDGKNYSAGVRMGSLGLMLNSVLLGLTSLFMEKLCRKWGAGFTWGVSNVVMSLCFIAMLIITAVRSNIDIGQGLPPDGIVIAALVVFSILGIPLAITYSVPYALVSSRIDALGLGQGLSMGVLNLAIVFPQIVVSLGSGPWDELFGGGNSPAFVVAALSAFAGGLIAILAIPRTRVEKPKIFA
- functional saccharose transporter (uptake of 14C-saccharose vs vector controls) ([2]; FIG. 5A): functional saccharose transporters
- Km ([2]; pH 4.0, Michaelis-Menten nonlinear regression, average ± standard deviation): 6 ± 1.2 mM

B3: AtSUT2: SUT2 from Arabidopsis thaliana, SEQ ID no. 7; low-affinity saccharose transporter, sensor and/or regulator (protein, listed as Arabidopsis thaliana)
chain: MSDSVSISVPYRNLRKEIELETVTKHRQNESGSSSFSESASPSNHSDSADGESVSKNCSLVTLVLSCTVAAGVQFGWALQLSLLTPYIQTLGISHAFSSFIWLCGPITGLVVQPFVGIWSDKCTSKYGRRRPFILVGSFMISIAVIIIGFSADIGYLLGDSKEHCSTFKGTRTRAAVVFIIGFWLLDLANNTVQGPARALLADLSGPDQRNTANAVFCLWMAIGNILGFSAGASGKWQEWFPFLTSRACCAACGNLKAAFLLAVVFLTICTLVTIYFAKEIPFTSNKPTRIQDSAPLLDDLQSKGLEHSKLNNGTANGIKYERVERDTDEQFGNSENEHQDETYVDGPGSVLVNLLTSLRHLPPAMHSVLIVMALTWLSWFPFFLFDTDWMGREVYHGDPTGDSLHMELYDQGVREGALGLLLNSVVLGISSFLIEPMCQRMGARVVWALSNFTVFACMAGTAVISLMSLSDDKNGIEYIMRGNETTRTAAVIVFALLGFPLAITYSVPFSVTAEVTADSGGGQGLAIGVLNLAIVIPQMIVSLGAGPWDQLFGGGNLPAFVLASVAAFAAGVIALQRLPTLSSSFKSTGFHIG
- pH of highest uptake rates [1]: 4.0
- saccharose accumulated in 10^8 cells ([1]; first five minutes of the test, in 10^8 cells): 0.1 nmol
- uptake of saccharose compared with yeast cells expressing empty vector pDR196 ([1]; p<0.05): significantly higher
- saccharose uptake at a pH of 6 ([1]; pH of 6): no further saccharose uptake was measured
- Vmax ([1]; table): 1.5 ± 0.1 nmol saccharose min^−1 10^8 ce
- Vmax ([1]; yeast SEY6210): 1.5 nmol·min^−1 10^8 cells^−1
- Km ([1]; yeast SEY6210): 11.7 mM
